Assay [1] deals with inflammatory responses elicited by topically applied phorbol myristate acetate (PMA) or topically applied arachidonic acid (AA). As to the kind of experiment: Topical mouse ear assay (TME), edema. Conditions: PMA or AA challenge (which not stated), N=5 mice/group. The assay is classed as in vivo. As to the method:
TABLE II Topical Mouse Ear Assay
Method: The right ears of mice (5 mice per group) were treated topically with either […] or 1000 μg AA alone or with the test compound in 25 μl of vehicle. The vehicle was water/pyridine/acetone (1:2:97). A control group of mice received the vehicle only. The mice were allowed food and water ad libitum during the treatment period; 2 hours for AA and 4 hours for PMA. The mice were sacrificed by cervical dislocation and a 6 mm diameter disc of tissue punched from both the treated and untreated ears. The tissue biopsies were immediately weighed and the weight increase of the treated ear relative to the weight of the untreated ear determined.
All of the data are expressed as the mean±SEM, N=5 mice/group.

Assay [2] shares this test system. Conditions: previously established; cited from earlier work.
Assay [3] has as its system erythema induced on the skin of guinea pigs by UV radiation. As to the kind of experiment: U.V. erythema assay. The assay is classed as in vivo. Conditions: topical, mean of 3 animals. The procedure:
The U.V. erythema assay by which topical anti-inflammatory activity is determined, is based on the ability of the compounds of Formula I to inhibit the erythema induced on the skin of guinea pigs by UV radiation. It has been substantiated by recent studies that prostaglandin synthesis and the release thereof may be the primary process involved in the production of erythema. A protocol of the assay and some results thereof are summarized below in Table III.
Guinea pigs were depilated and stabilized for 30 minutes. Following anesthesia with Nembutal (35 mg/kg), they were exposed to a U.V. lamp for 45 minutes at a distance of seven inches from the abdominal surface. Compound was applied topically (seven applications in a total of 0.1 ml vehicle) 15 minutes post exposure. […]
Vehicle 1774--85% EtOH, 12% Propylene Glycol, 3% Methyl Salicylate
A numerical value 0-5 was assigned to the degree of erythema observed under standard lighting conditions. Drug effect on the developing erythema was calculated as follows: [formula] Results: % Inhibition of Erythema by (a) N-(2-hydroxy-5-methoxybenzyl)aniline

For the molecule `COc1ccc(O)c(CNc2cccs2)c1` [A, 2-(2-hydroxy-5-methoxybenzylamino)thiophene], in assay [1] (dosage 300 μg), the “Edema (% inhibition)” value is given as 77%.
For `COc1ccc(O)c(CNc2cccc3nsnc23)c1` [B, 4-(2-hydroxy-5-methoxybenzylamino)-2,1,3-benzothiadiazole], the “Edema (% inhibition)” value in assay [1] (dosage 300 μg) was 44%.
For `COc1ccc(O)c(CNc2nc3ccccc3[nH]2)c1` [C, 2-(2-hydroxy-5-methoxybenzylamino)benzimidazole], the “Edema (% inhibition)” value in assay [1] (dosage 300 μg) is listed as 80%.
With `C[C@@H]1C[C@H]2[C@@H]3CCC4=CC(=O)C=C[C@]4(C)[C@@]3(F)[C@@H](O)C[C@]2(C)[C@@]1(O)C(=O)CO` [Dexamethasone, reference compound], the “activity in the topical mouse ear assay” value in assay [2] is recorded as “active”. The “Edema (% inhibition)” value in assay [1] (dosage 150 μg) was 100%.
Consider `COc1ccc2c(c1)c(CC(=O)O)c(C)n2C(=O)c1ccc(Cl)cc1` [Indomethacin, reference compound], for which the “activity in the topical mouse ear assay” value in assay [2] is reported as “active”. In addition, the “Edema (% inhibition)” value in assay [1] (dosage 1000 μg) came to 88%.
On to `COc1ccc(O)c(CNc2ccccc2)c1` [N-(2-hydroxy-5-methoxybenzyl)aniline], for which, in assay [3] (0.1 mg), the “% Inhibition of Erythema, 2 Hr.” value is 19.3%; the “% Inhibition of Erythema, 3 Hr.” value came to 16.7%; the “% Inhibition of Erythema, 4 Hr.” value is given as 15.0%; the “% Inhibition of Erythema, 6 Hr.” value is recorded as 6.7%. Moreover, the “% Inhibition of Erythema, 24 Hr.” value in assay [3] (0.1 mg) was found to be 0%. Also, in assay [3] (0.3 mg), the “% Inhibition of Erythema, 2 Hr.” value worked out at 55.3%; the “% Inhibition of Erythema, 3 Hr.” value turned out to be 50.0%; the “% Inhibition of Erythema, 4 Hr.” value was 46.7%; the “% Inhibition of Erythema, 6 Hr.” value was 35.0%. The “% Inhibition of Erythema, 24 Hr.” value in assay [3] (0.3 mg) was found to be 0%. Further, in assay [3] (1.0 mg), the “% Inhibition of Erythema, 2 Hr.” value turned out to be 80.3%; the “% Inhibition of Erythema, 3 Hr.” value is listed as 91.7%; the “% Inhibition of Erythema, 4 Hr.” value worked out at 76.7%; the “% Inhibition of Erythema, 6 Hr.” value worked out at 63.3%. Further, the “% Inhibition of Erythema, 24 Hr.” value in assay [3] (1.0 mg) is 26.7%. Further, in assay [3] (3.0 mg), the “% Inhibition of Erythema, 2 Hr.” value stood at 100%; the “% Inhibition of Erythema, 3 Hr.” value turned out to be 100%; the “% Inhibition of Erythema, 4 Hr.” value came to 63.3%; the “% Inhibition of Erythema, 6 Hr.” value amounted to 43.3%. Also, in assay [3] (3.0 mg), the “% Inhibition of Erythema, 24 Hr.” value came to 33.3%.

Values taken from US4578390A, “Hydroxybenzylamino derivatives as anti-inflammatory agents” (Merck & Co., Inc., priority 1983, dated 1986).
